Some results are limits rather than exact numbers.

Consider 87 compounds from the Kinase Knowledgebase extract (Sharma et al. 2016).

PIK3CA (human), sequence (P42336 whole entry, looked up): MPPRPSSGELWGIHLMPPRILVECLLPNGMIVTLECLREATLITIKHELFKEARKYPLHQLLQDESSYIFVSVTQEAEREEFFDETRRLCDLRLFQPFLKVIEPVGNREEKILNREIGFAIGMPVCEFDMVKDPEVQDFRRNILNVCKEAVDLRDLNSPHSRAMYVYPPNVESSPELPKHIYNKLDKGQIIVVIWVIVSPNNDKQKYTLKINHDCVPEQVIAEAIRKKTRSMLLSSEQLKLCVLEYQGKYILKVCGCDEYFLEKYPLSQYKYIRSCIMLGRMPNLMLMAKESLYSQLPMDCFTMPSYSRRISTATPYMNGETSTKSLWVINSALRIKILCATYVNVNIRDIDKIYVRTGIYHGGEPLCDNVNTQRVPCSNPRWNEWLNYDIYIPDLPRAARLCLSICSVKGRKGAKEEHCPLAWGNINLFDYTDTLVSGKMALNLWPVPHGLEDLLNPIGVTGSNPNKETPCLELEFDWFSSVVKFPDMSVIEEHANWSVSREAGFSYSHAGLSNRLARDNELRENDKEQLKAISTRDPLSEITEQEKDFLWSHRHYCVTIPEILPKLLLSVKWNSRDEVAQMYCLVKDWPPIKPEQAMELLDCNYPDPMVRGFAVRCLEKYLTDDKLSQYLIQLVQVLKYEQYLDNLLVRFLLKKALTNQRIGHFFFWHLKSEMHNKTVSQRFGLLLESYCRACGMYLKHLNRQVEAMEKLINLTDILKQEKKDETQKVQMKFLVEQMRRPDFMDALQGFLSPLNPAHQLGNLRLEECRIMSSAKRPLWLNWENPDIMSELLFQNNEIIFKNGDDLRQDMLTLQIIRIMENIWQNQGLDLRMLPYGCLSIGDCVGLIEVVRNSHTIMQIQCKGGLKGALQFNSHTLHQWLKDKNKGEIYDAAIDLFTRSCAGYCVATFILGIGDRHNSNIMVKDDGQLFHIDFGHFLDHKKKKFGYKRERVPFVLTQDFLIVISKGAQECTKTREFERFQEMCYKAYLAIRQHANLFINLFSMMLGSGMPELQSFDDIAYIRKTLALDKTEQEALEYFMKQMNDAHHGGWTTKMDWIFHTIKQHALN

This assay concerns the target PIK3CA (human) (UniProt P42336). Kind of assay: Assessment of PI3KCA Kinase Activity.
Compound `CC(=O)Nc1cc(-c2nc(-c3ccccc3C)c(-c3ncc[nH]3)s2)ccn1` displayed an IC50 of under 100 nM.

`COc1ccc(-c2nc(-c3ccnc(NC(C)=O)c3)sc2-c2ncc[nH]2)c(Cl)c1` yielded an IC50 of under 100 nM. For `CCOc1nc(-c2ccnc(NC(=O)c3ccc(F)cc3)c2)sc1-c1nnc[nH]1` the value was 100 to 1000 nM; for `CC(=O)Nc1cc(-c2nc(-c3ccc(CO)cc3)c(-c3ncc[nH]3)s2)ccn1`, 100 to 1000 nM; for `CC(=O)Nc1cc(-c2sc(-c3nccn3Cc3ccccc3)c(-c3ccc(Cl)cc3Cl)c2C#N)ccn1`, under 100 nM. Turning to `Cc1nn2ccccc2c1-c1nc(-c2ccc(F)cc2F)c(-c2nc[nH]n2)s1`, the half-maximal inhibitory concentration (IC50) is under 100 nM. The compound `CCOc1nc(-c2ccnc(NC(=O)CC(C)C)c2)sc1-c1nnc[nH]1` came in with an IC50 of 100 to 1000 nM. The value for `Cc1nn2ccsc2c1-c1nc(-c2nc[nH]n2)c(-c2ccccc2)s1` was 100 to 1000 nM. The value for `Clc1ccc(-c2cc(-c3ncnc4[nH]ccc34)sc2-c2ncc[nH]2)c(Cl)c1` was under 100 nM.

In turn, `COc1cncc(-c2nc(-c3ccnc(NC(C)=O)c3)sc2-c2ncc[nH]2)c1` registered a half-maximal inhibitory concentration (IC50) of 100 to 1000 nM. `CCOc1nc(-c2ccnc(NC(=O)COC)c2)sc1-c1nnc[nH]1` yielded an IC50 of 100 to 1000 nM. The value for `N#Cc1c(-c2ccnc(NC(=O)CCc3ccccc3)c2)sc(-c2nnc[nH]2)c1-c1ccc(Cl)cc1Cl` was 100 to 1000 nM; that for `Cc1nc2ccc(CNCCCN)cn2c1-c1nc(-c2ccccc2)c(-c2nnc[nH]2)s1` was under 100 nM; that for `CC(=O)Nc1cc(-c2nc(Br)c(-c3ncc[nH]3)s2)ccn1` was 100 to 1000 nM. The value for `CCOc1nc(-c2ccnc(NC(=O)COc3ccccc3)c2)sc1-c1nnc[nH]1` was 100 to 1000 nM; that for `CNc1cc(-c2sc(-c3ncc[nH]3)c(-c3ccc(Cl)cc3Cl)c2C#N)ccn1` was under 100 nM; that for `CC(=O)Nc1cc(-c2nc(NC(C)=O)c(-c3ncc[nH]3)s2)ccn1` was 100 to 1000 nM. The value for `Cc1nn2ccccc2c1-c1nc(-c2cccc(OCc3ccccc3)c2)c(-c2nc[nH]n2)s1` was 100 to 1000 nM; that for `Cc1nn2ccc(OCCO)cc2c1-c1nc(-c2ccccc2)c(-c2nnc[nH]2)s1` was under 100 nM. As to `COc1cccc(F)c1-c1nc(-c2c(C)nn3ccc(OCCN4CCOCC4)cc23)sc1-c1nc[nH]n1`, the concentration for half-maximal inhibition (IC50) was under 100 nM. `Cc1nc2ccc(CCCN)cn2c1-c1nc(-c2ccccc2)c(-c2nnc[nH]2)s1` registered an IC50 of under 100 nM.

Compound `CCOc1nc(-c2ccnc(NC(=O)c3ccc(N(C)C)cc3)c2)sc1-c1nnc[nH]1` showed an IC50 of 100 to 1000 nM. `Cc1nn2ccccc2c1-c1nc(-c2cccc(F)c2F)c(-c2nc[nH]n2)s1` showed an IC50 of under 100 nM.

In the case of `Cc1nc(NC(=O)C2CC2)sc1-c1nc(-c2ccccc2)c(-c2nc[nH]n2)s1`, the IC50 is under 100 nM. The value for `CC(=O)Nc1cc(-c2nc(-c3ccc(F)cc3F)c(-c3ncc[nH]3)s2)ccn1` was under 100 nM; that for `CCC(=O)Nc1cc(-c2sc(-c3nnc[nH]3)c(-c3ccc(Cl)cc3Cl)c2C#N)ccn1` was under 100 nM. The value for `CCOc1nc(-c2ccnc(NC(=O)c3ccc(OC)cc3)c2)sc1-c1nnc[nH]1` was 100 to 1000 nM; that for `N#Cc1c(-c2ccnc(N)n2)sc(C(N)=O)c1-c1ccc(Cl)cc1Cl` was under 100 nM; that for `Cc1ccc(-c2nc(-c3c(C)nn4ccccc34)sc2-c2nc[nH]n2)o1` was under 100 nM. The value for `N#Cc1c(-c2ccnc(NC(=O)CCl)c2)sc(-c2nnc[nH]2)c1-c1ccc(Cl)cc1Cl` was under 100 nM; that for `Clc1ccc(-c2cc(-c3ccnc4sccc34)sc2-c2ncc[nH]2)c(Cl)c1` was under 100 nM.

Take `Cc1nn2ccccc2c1-c1nc(-c2ccsc2)c(-c2nnc[nH]2)s1`: the IC50 is under 100 nM. The value for `CNc1cc(-c2sc(-c3nnc[nH]3)c(-c3ccc(Cl)cc3Cl)c2C#N)ccn1` was under 100 nM.

`CC(=O)Nc1cc(-c2sc(-c3nnc(Br)[nH]3)c(-c3ccc(Cl)cc3Cl)c2C#N)ccn1` yielded an IC50 of under 100 nM. As for `N#Cc1c(-c2ccnc(NC(=O)c3cccnc3)c2)sc(-c2nnc[nH]2)c1-c1ccc(Cl)cc1Cl`, the 50% inhibitory concentration (IC50) fell in the range of 100 to 1000 nM.

In the case of `Cc1nn(C)c(C)c1-c1nc(-c2c(C)nn3ccccc23)sc1-c1nc[nH]n1`, the IC50 was under 100 nM. The value for `CC(=O)Nc1cc(-c2sc(-c3cnn[nH]3)c(-c3ccc(Cl)cc3Cl)c2C#N)ccn1` was under 100 nM. Consider `CC(=O)Nc1cc(-c2nc(-c3ccc(N)nc3)c(-c3ncc[nH]3)s2)ccn1`, for which the IC50 was 100 to 1000 nM. The value for `Cc1nn2ccc(OCCN3CCCCC3)cc2c1-c1nc(-c2ccccc2)c(-c2nnc[nH]2)s1` was under 100 nM; that for `Cc1nn2ccccc2c1-c1nc(N(C)c2ccc(Cl)cc2)c(-c2nnc[nH]2)s1` was under 100 nM. For `CC(=O)Nc1cc(-c2cc(-c3ccc(Cl)cc3Cl)c(-c3ncc[nH]3)s2)ncn1` the value was under 100 nM; for `CC(C)(C)OC(=O)Nc1cc(-c2sc(-c3ncc[nH]3)c(-c3ccc(Cl)cc3Cl)c2C#N)ccn1`, under 100 nM; for `CNC(=O)Nc1cc(-c2sc(-c3ncc[nH]3)c(-c3ccc(Cl)cc3Cl)c2C#N)ccn1`, under 100 nM.

Turning to `CC(=O)Nc1cc(-c2sc(-c3nccn3Cc3ccc(F)cc3)c(-c3ccc(Cl)cc3Cl)c2C#N)ccn1`, the half-inhibitory concentration (IC50) is 100 to 1000 nM. Consider `CCOc1nc(-c2ccnc(NC(=O)c3cc(C)on3)c2)sc1-c1nnc[nH]1`, for which the IC50 is 100 to 1000 nM.

`CC(C)(C)Nc1nc2c(-c3cc(-c4ccc(Cl)cc4Cl)c(-c4ncc[nH]4)s3)ncnc2s1` had an IC50 of under 100 nM. For `CCOc1nc(-c2ccnc(NC(=O)Cc3cccs3)c2)sc1-c1nnc[nH]1` the value was 100 to 1000 nM; for `Cc1nc2ccc(CN(C)CCN)cn2c1-c1nc(-c2ccccc2)c(-c2nnc[nH]2)s1`, under 100 nM. Turning to `Cc1nn2ccccc2c1-c1nc(-c2cn(C)nc2C(F)(F)F)c(-c2nc[nH]n2)s1`, the IC50 is under 100 nM. The value for `N#Cc1c(-c2nc(N)ncc2Cl)sc(-c2nnc[nH]2)c1-c1ccc(Cl)cc1Cl` was 100 to 1000 nM; that for `CCC(=O)Nc1cc(-c2nc(-c3ccc(Cl)cc3Cl)c(-c3ncc[nH]3)s2)ccn1` was under 100 nM; that for `Cc1nn2ccc(O)cc2c1-c1nc(-c2ccccc2)c(-c2nnc[nH]2)s1` was under 100 nM. For `Cc1nn2ccsc2c1-c1nc(-c2ccccc2)c(-c2cocn2)s1` the value was 100 to 1000 nM. The value for `Cc1nn2ccsc2c1-c1nc(-c2ccccc2)c(-c2ncc[nH]2)s1` was under 100 nM; that for `CC(=O)Nc1cc(-c2nc(-c3cc(CO)ccc3Cl)c(-c3ncc[nH]3)s2)ccn1` was under 100 nM; that for `COC(=O)Nc1cc(-c2sc(-c3ncc[nH]3)c(-c3ccc(Cl)cc3Cl)c2C#N)ccn1` was under 100 nM. `CCNc1cc(-c2nc(-c3cc(CCN)ccc3Cl)c(-c3ncc[nH]3)s2)ccn1`: the 50% inhibitory concentration (IC50) was 100 to 1000 nM. The value for `CC(=O)Nc1cc(-c2nc(-c3cc4ccccc4s3)c(-c3ncc[nH]3)s2)ccn1` was under 100 nM; that for `Cc1nn2ccc(N3CCOCC3)cc2c1-c1nc(-c2ccccc2)c(-c2nc[nH]n2)s1` was under 100 nM; that for `CC(=O)Nc1cc(-c2nc(-c3ccccc3)c(-c3nnc[nH]3)s2)ccn1` was under 100 nM. `Cc1nn2ccsc2c1-c1nc(-c2ccccc2)c(-c2nnc[nH]2)s1` gave a 50% inhibitory concentration (IC50) of under 100 nM. The value for `Cc1nn2ccccc2c1-c1nc(-c2cccs2)c(-c2nc[nH]n2)s1` was under 100 nM. Compound `CNCC(=O)Nc1cc(-c2sc(-c3nnc[nH]3)c(-c3ccc(Cl)cc3Cl)c2C#N)ccn1` gave a concentration for half-maximal inhibition (IC50) of 100 to 1000 nM.

Compound `C/C=C/c1nc(-c2c(C)nn3ccccc23)sc1-c1nnc[nH]1` showed a half-inhibitory concentration (IC50) of under 100 nM. For `Cc1nn2ccccc2c1-c1cc(-c2ccc(Cl)cc2Cl)c(-c2ncc[nH]2)s1` the value was under 100 nM; for `Cc1nn2ccc(OCCCN3CCOCC3)cc2c1-c1nc(-c2ccccc2)c(-c2nc[nH]n2)s1`, under 100 nM; for `Cc1cccc(C)c1-c1nc(-c2c(C)nn3ccccc23)sc1-c1nc[nH]n1`, under 100 nM. The value for `CNc1cc(-c2sc(-c3nccn3C)c(-c3ccc(Cl)cc3Cl)c2C#N)ccn1` was 100 to 1000 nM; that for `CC(=O)Nc1cc(-c2nc(-c3cc(Cl)ccc3Cl)c(-c3ncc[nH]3)s2)ccn1` was under 100 nM; that for `CC(=O)Nc1cc(-c2nc(-c3ccc(Cl)cc3Cl)c(-c3nc(C)c[nH]3)s2)ccn1` was under 100 nM. The value for `N#Cc1c(-c2ccnc(N)c2)sc(-c2nnc[nH]2)c1-c1ccc(Cl)cc1Cl` was under 100 nM. In the case of `Cc1nn2ccccc2c1-c1nc(C2CCCCC2)c(-c2nnc[nH]2)s1`, the half-inhibitory concentration (IC50) was under 100 nM.

As for `CC(=O)Nc1cc(-c2sc(-c3ccn[nH]3)c(-c3ccc(Cl)cc3Cl)c2C#N)ccn1`, the IC50 was under 100 nM. `Cc1nn2ccccc2c1-c1nc(-c2cccc(C(F)(F)F)c2)c(-c2nc[nH]n2)s1`: the IC50 lay in the range of 100 to 1000 nM. For `CCOc1nc(-c2ccnc(NC(C)=O)c2)sc1-c1nnc[nH]1` the value was under 100 nM; for `Cc1nn2ccccc2c1-c1nc(-c2ccc(N3CCNCC3)nc2)c(-c2nc[nH]n2)s1`, 100 to 1000 nM.

`CCOc1nc(-c2ccnc(NC(=O)c3ccno3)c2)sc1-c1nnc[nH]1` had an IC50 of under 100 nM. For `COc1cccc(F)c1-c1nc(-c2c(C)nn3ccc(OCCN4CCN(C)CC4)cc23)sc1-c1nc[nH]n1` the value was under 100 nM; for `N#Cc1c(-c2ccnc(NC(=O)CO)c2)sc(-c2nnc[nH]2)c1-c1ccc(Cl)cc1Cl`, under 100 nM; for `Cc1nn2ccccc2c1-c1nc(-c2ccccc2C(F)(F)F)c(-c2nnc[nH]2)s1`, under 100 nM. The value for `CNc1nccc(-c2sc(-c3nnc[nH]3)c(-c3ccc(Cl)cc3Cl)c2C#N)n1` was under 100 nM; that for `COc1ccccc1-c1nc(-c2c(C)nn3ccccc23)sc1-c1nnc[nH]1` was under 100 nM; that for `N#Cc1c(-c2cc(N)nc(F)c2)sc(-c2nnc[nH]2)c1-c1ccc(Cl)cc1Cl` was 100 to 1000 nM. Take `Cc1nn2ccccc2c1-c1nc(C(C)(C)C)c(-c2nnc[nH]2)s1`: the half-maximal inhibitory concentration (IC50) is under 100 nM. For `COc1cccc(Cl)c1-c1nc(-c2c(C)nn3ccccc23)sc1-c1nc[nH]n1` the value was under 100 nM; for `Cc1nn2ccsc2c1-c1nc(-c2ccccc2)c(-c2nnn[nH]2)s1`, 100 to 1000 nM; for `Cc1nn2ccc(-c3cnn(C)c3)cc2c1-c1nc(-c2ccccc2)c(-c2nc[nH]n2)s1`, under 100 nM.

By IC50 is commonly meant the concentration needed to halve the response being measured.
